Like-named read-outs stand apart in the source and are kept apart here.
Target: T1, recombinant human serotonin receptor 5-HT2A (Homo sapiens, UniProt P28223)
T1 construct: expressed in transfected cells; method B: loaded with Ca2+ dye
Experiment: 5-HT2A antagonist Ca2+ assay in CHO-K1 cells (method A aequorin luminescence / method B FLIPR fluorescence)
Type: cell-based
Conditions: antagonist mode vs EC80 of reference agonist, method A or B
Summary of the method: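 IC50 was obtained by nonlinear regression of percent inhibition of the EC80 agonist Ca2+ response in CHO-K1 cells stably expressing human 5-HT2A. The readout was aequorin luminescence with agonist injected 15 min after compound (A), or Ca2+-dye fluorescence on FLIPR with serotonin as agonist (B).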

T1 sequence (P28223 whole entry): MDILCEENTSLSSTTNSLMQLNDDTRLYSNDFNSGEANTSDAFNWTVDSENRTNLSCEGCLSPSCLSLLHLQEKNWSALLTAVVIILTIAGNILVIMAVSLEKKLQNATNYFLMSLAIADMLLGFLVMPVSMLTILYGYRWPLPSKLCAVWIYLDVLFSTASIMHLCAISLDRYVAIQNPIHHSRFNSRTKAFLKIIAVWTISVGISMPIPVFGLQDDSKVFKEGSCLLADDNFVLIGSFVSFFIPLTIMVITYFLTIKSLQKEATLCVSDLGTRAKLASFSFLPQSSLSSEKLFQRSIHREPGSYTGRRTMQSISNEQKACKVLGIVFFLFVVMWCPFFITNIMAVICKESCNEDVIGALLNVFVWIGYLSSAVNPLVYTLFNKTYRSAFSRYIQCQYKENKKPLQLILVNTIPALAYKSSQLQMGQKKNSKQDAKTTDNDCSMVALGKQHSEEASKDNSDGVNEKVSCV

SMILES | IC50 (read-out: 5HT2A IC50) [µM] | IC50 (5HT2A IC50, μM) [µM]
OC(CO[C@@H]1CCCc2ccccc21)CN1CC[C@H](Oc2ccc(F)cc2)C1 (stereo partly drawn) [Example 51, 1-((S)-3-(4-fluorophenoxy)pyrrolidin-1-yl)-3-(((R)-1,2,3,4-tetrahydronaphthalen-1-yl)oxy)propan-2-ol] | 0.49 | –
CC(C1CCc2ccccc21)N1CCC[C@H](Oc2ccc(F)cc2)C1 (stereo partly drawn) [Example 257, (3S)-1-(1-(2,3-dihydro-1H-inden-1-yl)ethyl)-3-(4-fluorophenoxy) piperidine] | > 10 | –
c1ccc2c(c1)CC(CN1CCC3(CC1)OCc1ccccc13)C2 [Example 392, 1′-((2,3-dihydro-1H-inden-2-yl)methyl)-3H-spiro[isobenzofuran-1,4′-piperidine]] | – | 1.59
COc1ccccc1O[C@H]1CCN(CC2Cc3ccccc3C2)[C@@H](C)C1 [Example 143, (2S,4S)-1-((2,3-dihydro-1H-inden-2-yl)methyl)-4-(2-methoxyphenoxy)-2-methylpiperidine] | 0.08 | –
c1ccc(CN2CCC3(CCc4ccccc4O3)CC2)cc1 [Example 415, 1′-benzylspiro[chromane-2,4′-piperidine]] | 2.15 | –
OC(COC1CCCCC1)CN1CCC2(CC1)CCN(c1ccccc1)C2 (stereo not drawn) [Example 354, 1-(cyclohexyloxy)-3-(2-phenyl-2,8-diazaspiro[4.5]decan-8-yl)propan-2-ol] | 1.94 | –
OC1(CN2CCC[C@@H](Oc3ccc(F)cc3)C2)COCc2ccccc21 (stereo partly drawn) [Example 258, 4-(((R)-3-(4-fluorophenoxy)piperidin-1-yl)methyl)isochroman-4-ol] | 1.5 | –
c1ccc2c(c1)CC1(CCN(CC3Cc4ccncc4C3)CC1)O2 (stereo not drawn) [Example 398, 1′-((6,7-dihydro-5H-cyclopenta[c]pyridin-6-yl)methyl)-3H-spiro[benzofuran-2,4′-piperidine]] | 9.65 | –
C[C@H]1C[C@]2(CCc3ccccc3O2)CCN1CCO[C@H]1CCc2ccccc21 [Example 433, (2S,2′S)-1′-(2-(((S)-2,3-dihydro-1H-inden-1-yl)oxy)ethyl)-2′-methylspiro[chromane-2,4′-piperidine]] | 0.32 | –
c1ccc(N2C[C@@H]3C[C@H]2CCN3CC2Cc3ccncc3C2)cc1 (stereo partly drawn) [Example 321, 6-(((1S,5R)-6-phenyl-2,6-diazabicyclo[3.2.1]octan-2-yl)methyl)-6,7-dihydro-5H-cyclopenta[c]pyridine] | > 10 | –
Fc1ccc(O[C@@H]2CCN(CC3CCc4cccnc43)C2)cc1 (stereo partly drawn) [Example 7, 7-(((R)-3-(4-fluorophenoxy)pyrrolidin-1-yl)methyl)-6,7-dihydro-5H-cyclopenta[b]pyridine] | 1.01 | –
O[C@H](COC1CCCCC1)CN1CC2(CC(Oc3ccccc3)CO2)C1 (stereo partly drawn) [Example 371, (2S)-1-(cyclohexyloxy)-3-(7-phenoxy-5-oxa-2-azaspiro[3.4]octan-2-yl)propan-2-ol] | 0.09 | –
COc1ccc2c(c1)C(CN1C[C@H]3CC[C@@H](C1)N3c1ccccc1)CC2 (stereo partly drawn) [Example 296, (1R,5S)-3-((6-methoxy-2,3-dihydro-1H-inden-1-yl)methyl)-8-phenyl-3,8-diazabicyclo[3.2.1]octane] | > 10 | –
COC(CCN1CCC(Oc2ccccc2)CC1)c1ccccc1 (stereo not drawn) [Example 226, 1-(3-methoxy-3-phenylpropyl)-4-phenoxypiperidine] | 0.02 | –
O[C@H](COC1CCCCC1)CN1[C@@H]2CC[C@H]1CN(c1ccc(F)cc1)C2 [Example 289, (S)-1-(cyclohexyloxy)-3-((1R,5S)-3-(4-fluorophenyl)-3,8-diazabicyclo[3.2.1]octan-8-yl)propan-2-ol] | – | 0.02
O=C1c2ccccc2CCN1CCN1CCOC(Cc2ccccc2)C1 (stereo not drawn) [Example 252, 2-(2-(2-benzylmorpholino)ethyl)-3,4-dihydroisoquinolin-1(2H)-one] | > 16.7 | –
COc1ccccc1OC1CCN(CC2COc3ccccc32)CC1 (stereo not drawn) [Example 130, 1-((2,3-dihydrobenzofuran-3-yl)methyl)-4-(2-methoxyphenoxy)piperidine] | > 10 | –
C[C@@H]1C[C@]2(CCc3ccccc3O2)CCN1CCO[C@H]1CCc2ccccc21 [Example 435, (2S,2′R)-1′-(2-(((S)-2,3-dihydro-1H-inden-1-yl)oxy)ethyl)-2′-methylspiro[chromane-2,4′-piperidine]] | 0.37 | –
O[C@@H](COC1CCCCC1)CN1CC[C@@H]2C[C@H]1CN2c1ccccc1 [Example 327, (R)-1-(cyclohexyloxy)-3-((1S,5R)-6-phenyl-2,6-diazabicyclo[3.2.1]octan-2-yl)propan-2-ol] | > 3.16 | –
c1ccc(CCN2C[C@H]3CC[C@@H](C2)N3c2ccccc2)cc1 [Example 298, (1R,5S)-3-phenethyl-8-phenyl-3,8-diazabicyclo[3.2.1]octane] | > 11 | –
CC1(C)Oc2ccccc2C1CN1CCC(Oc2ccccc2F)CC1 (stereo not drawn) [Example 133, 1-((2,2-dimethyl-2,3-dihydrobenzofuran-3-yl)methyl)-4-(2-fluorophenoxy)piperidine] | 0.29 | –

SMILES | IC50 (read-out: 5HT2A IC50) [µM] | IC50 (5HT2A IC50, μM) [µM]
COc1ccccc1O[C@H]1CCN(CCN2CCc3ccccc3C2=O)[C@@H]1C [Example 18, 2-(2-((2R,3S)-3-(2-methoxyphenoxy)-2-methylpyrrolidin-1-yl)ethyl)-3,4-dihydroisoquinolin-1(2H)-one] | 0.02 | –
COc1ccccc1O[C@@H]1CCN(CCN2CCc3ccccc3C2=O)[C@@H]1C [Example 20, 2-(2-((2R,3R)-3-(2-methoxyphenoxy)-2-methylpyrrolidin-1-yl)ethyl)-3,4-dihydroisoquinolin-1(2H)-one] | 0.01 | –
c1ccc2c(c1)CC1(CCN(CC3COc4ccccc43)CC1)O2 (stereo not drawn) [Example 395, 1′-((2,3-dihydrobenzofuran-3-yl)methyl)-3H-spiro[benzofuran-2,4′-piperidine]] | > 10 | –
Fc1ccc(OC2COCCN(CC3Cc4cccnc4C3)C2)cc1 (stereo not drawn) [Example 279, 4-((6,7-dihydro-5H-cyclopenta[b]pyridin-6-yl)methyl)-6-(4-fluorophenoxy)-1,4-oxazepane] | > 10 | –
c1cnc(OC2CCN(CC3Cc4cccnc4C3)CC2)nc1 (stereo not drawn) [Example 157, 6-((4-(pyrimidin-2-yloxy)piperidin-1-yl)methyl)-6,7-dihydro-5H-cyclopenta[b]pyridine] | > 10 | –
Fc1ccc(O[C@H]2CCCN(CCC3CCOc4ccccc43)C2)cc1 (stereo partly drawn) [Example 263, (3S)-1-(2-(chroman-4-yl)ethyl)-3-(4-fluorophenoxy)piperidine] | > 12.9 | –
C[C@@H]1C[C@@]2(CCc3ccccc3O2)CCN1CCO[C@H]1CCc2ccccc21 [Example 434, (2R,2′R)-1′-(2-(((S)-2,3-dihydro-1H-inden-1-yl)oxy)ethyl)-2′-methylspiro[chromane-2,4′-piperidine]] | 0.73 | –
O=C1c2ccccc2CCN1CCN1CC[C@@H](Oc2ccccn2)C1 [Example 15, (R)-2-(2-(3-(pyridin-2-yloxy)pyrrolidin-1-yl)ethyl)-3,4-dihydroisoquinolin-1(2H)-one] | > 16.7 | –
OC(CO[C@H]1CCc2ccccc21)CN1CC[C@@H](Oc2cccc(F)c2)C1 (stereo partly drawn) [Example 34, 1-(((S)-2,3-dihydro-1H-inden-1-yl)oxy)-3-((R)-3-(3-fluorophenoxy)pyrrolidin-1-yl)propan-2-ol] | 4.66 | –
COc1cccc(OC2CCN(CC3CCOc4ccccc43)CC2)c1 (stereo not drawn) [Example 164, 1-(chroman-4-ylmethyl)-4-(3-methoxyphenoxy)piperidine] | 0.86 | –
Cc1cccc(N2CCN(CC3(O)CCOc4ccccc43)CC2)c1C (stereo not drawn) [Example 58, 4-((4-(2,3-dimethylphenyl)piperazin-1-yl)methyl)chroman-4-ol] | 0.49 | –
COc1ccc2c(c1)C(CN1CCC(OCc3ccncc3)CC1)CC2 (stereo not drawn) [Example 248, 4-(((1-((6-methoxy-2,3-dihydro-1H-inden-1-yl)methyl)piperidin-4-yl)oxy)methyl)pyridine] | > 3.16 | –
C[C@@H]1C[C@]2(CCc3ccccc3O2)CCN1CCN1CCc2ccccc2C1=O [Example 423, 2-(2-((2S,2′R)-2′-methylspiro[chromane-2,4′-piperidin]-1′-yl)ethyl)-3,4-dihydroisoquinolin-1(2H)-one] | 2.81 | –
COc1cccc(O[C@@H]2CCN(CC(O)CO[C@H]3CCc4ccccc43)C2)c1 (stereo partly drawn) [Example 38, 1-(((S)-2,3-dihydro-1H-inden-1-yl)oxy)-3-((R)-3-(3-methoxyphenoxy)pyrrolidin-1-yl)propan-2-ol] | 3.17 | –
O=C1c2ccccc2CCN1CCN1CC[C@H](Oc2ccncc2)C1 [Example 30, (S)-2-(2-(3-(pyridin-4-yloxy)pyrrolidin-1-yl)ethyl)-3,4-dihydroisoquinolin-1(2H)-one] | > 16.7 | –
COc1ccccc1CN1CCC2(CCc3ccccc3O2)CC1 [Example 416, l′-(2-methoxybenzyl) spiro[chromane-2,4′-piperidine]] | 1.05 | –
CC1(C)Oc2ccccc2C1CN1CCC(Oc2ccc(F)cc2)CC1 (stereo not drawn) [Example 135, 1-((2,2-dimethyl-2,3-dihydrobenzofuran-3-yl)methyl)-4-(4-fluorophenoxy)piperidine] | 0.12 | –
OC(COc1ccccc1)CN1C[C@@H]2C[C@H]1CN2c1ccccc1 (stereo partly drawn) [Example 307, 1-phenoxy-3-((1S,4S)-5-phenyl-2,5-diazabicyclo[2.2.1]heptan-2-yl)propan-2-ol] | 10.4 | –
OC(COC1CCCCC1)CN1CCCC12CCCN(c1ccccc1)C2 (stereo not drawn) [Example 353, 1-(cyclohexyloxy)-3-(7-phenyl-1,7-diazaspiro[4.5]decan-1-yl)propan-2-ol] | > 16.7 | –
c1ccc2c(c1)COC21CCN(CC2COc3ccccc32)CC1 (stereo not drawn) [Example 391, 1′-((2,3-dihydrobenzofuran-3-yl)methyl)-3H-spiro[isobenzofuran-1,4′-piperidine]] | – | 14.1
COCc1cccc(OC2CCN(CC3Cc4cccnc4C3)CC2)c1 (stereo not drawn) [Example 152, 6-((4-(3-(methoxymethyl)phenoxy)piperidin-1-yl)methyl)-6,7-dihydro-5H-cyclopenta[b]pyridine] | 0.22 | –
